Patent publication US7105541B2, “Naphthyl compounds, intermediates, compositions, and methods of use” (Eli Lilly and Company, priority 1996, dated 2006)
Counter-ions that a name gives are not always drawn. Marks after values point to notes of the source that are not given here.

Tested on: ovariectomized rats
Assay: ovariectomized rat model of postmenopausal hyperlipidemia (serum cholesterol, uterine weight, uterine eosinophil peroxidase)
Assay type: in vivo
Text: Experimental models of postmenopausal hyperlipidemia are known in the art. Germane to this invention is the ovariectomized rat model which is detailed in U.S. Pat. No. 5,464,845. Data presented in Table 1 show comparative results among ovariectomized rats, rats treated with 17-α-ethynyl estradiol (EE2), and rats treated with certain compounds of this invention. […] This uterine response to estrogen is well recognized in the art.
Not only did the compounds of the present invention reduce serum cholesterol compared to the ovariectomized animals, but the uterine weight was increased to lesser extent than those given EE2. Compared to estrogenic compounds known in the art, the benefit of serum cholesterol reduction while lessening the effect on uterine weight is unusual and desirable.
As expressed in the data below, estrogenicity also was assessed by evaluating the response of eosinophil infiltration into the uterus.
The data presented in Table 1 reflect the response per treatment group.

[1] = orally administered at 0.1 mg/kg/day, ovariectomized rats
[2] = ovariectomized rats, 0.1 mg/kg PO
[3] = ovariectomized rats, 1.0 mg/kg PO
[4] = ovariectomized rats, 10.0 mg/kg PO
[5] = ovariectomized rats, 0.01 mg/kg PO

Structure (SMILES)	Uterine Eosinophil (Vmax), eosinophil peroxidase [2]	Uterine Weight % Inc (increase versus the ovariectomized controls) [2]	Uterine Eosinophil (Vmax), eosinophil peroxidase [3]	Uterine Weight % Inc (increase versus the ovariectomized controls) [3]	Uterine Eosinophil (Vmax), eosinophil peroxidase [4]	Uterine Weight % Inc (increase versus the ovariectomized controls) [4]	Uterine Eosinophil (Vmax), eosinophil peroxidase [5]	Uterine Weight % Inc (increase versus the ovariectomized controls) [5]	serum cholesterol (in words) [1]	uterine weight versus ovariectomized animals (in words) [1]	Serum Cholest. % Dec. (decrease versus ovariectomized controls) [2]	eosinophil infiltration into the uterus (in words) (stromal layer of ovariectomized rat uteri)	Serum Cholest. % Dec. (decrease versus ovariectomized controls) [3]	Serum Cholest. % Dec. (decrease versus ovariectomized controls) [4]	Serum Cholest. % Dec. (decrease versus ovariectomized controls) [5]
C#C[C@]1(O)CC[C@H]2[C@@H]3CCc4cc(O)ccc4[C@H]3CC[C@@]21C [EE2, 17-α-Ethynyl-estradiol, reference compound]	174.3*	138.8* %							caused a decrease in serum cholesterol	substantially greater than the uterine weight of the ovariectomized animals	88.1* %	substantial and expected increase in eosinophil infiltration			
Cl.Oc1cccc(-c2ccc3cc(O)ccc3c2Oc2ccc(OCCN3CCCCC3)cc2)c1 [Example 3, 1-[4-[2-(1-piperidinyl)ethoxy]phenoxy]-2-(3-hydroxyphenyl)-6-hydroxynaphthalene hydrochloride]	4.8	10.4%	3.0	15.3%	1.2	3.9%					26.3* %		45.7* %	22.9%	
O=C(c1ccc(OCCN2CCCCC2)cc1)c1c(-c2ccc(O)cc2)sc2cc(O)ccc12 [Raloxifene, [2-(4-hydroxyphenyl)-6-hydroxybenzo[b]thien-3-yl] [4-[2-(1-piperdinyl)ethoxy]phenyl]methanone hydrochloride, reference compound]	5.4	23.5%									49.3* %				

Second part, led by results:

Uterine Eosinophil (Vmax), eosinophil peroxidase [2]	Uterine Weight % Inc (increase versus the ovariectomized controls) [2]	Uterine Eosinophil (Vmax), eosinophil peroxidase [3]	Uterine Weight % Inc (increase versus the ovariectomized controls) [3]	Uterine Eosinophil (Vmax), eosinophil peroxidase [4]	Uterine Weight % Inc (increase versus the ovariectomized controls) [4]	Uterine Eosinophil (Vmax), eosinophil peroxidase [5]	Uterine Weight % Inc (increase versus the ovariectomized controls) [5]	Structure (SMILES)	serum cholesterol (in words) [1]	uterine weight versus ovariectomized animals (in words) [1]	Serum Cholest. % Dec. (decrease versus ovariectomized controls) [2]	eosinophil infiltration into the uterus (in words) (stromal layer of ovariectomized rat uteri)	Serum Cholest. % Dec. (decrease versus ovariectomized controls) [3]	Serum Cholest. % Dec. (decrease versus ovariectomized controls) [4]	Serum Cholest. % Dec. (decrease versus ovariectomized controls) [5]
4.5	42.7* %	7.8	43.8* %	4.5	37.2* %			COc1cccc(-c2ccc3ccccc3c2Oc2ccc(OCCN3CCCCC3)cc2)c1.Cl [Example 2, 1-[4-[2-(1-piperidinyl)ethoxy]phenoxy]-2-(3-methoxyphenyl)naphthalene hydrochloride]			59.6* %		66.2* %	59.0* %	
4.8	21.9%	4.8	35.8* %			2.1	9.6%	COc1cccc(-c2ccc3cc(OC)ccc3c2Oc2ccc(OCCN3CCCCC3)cc2)c1.Cl [Example 1, 1-[4-[2-(1-piperidinyl)ethoxy]phenoxy]-2-(3-methoxyphenyl)-6-methoxynaphthalene hydrochloride]			55.6* %		60.5* %		12.1%
